Measurements from PMC3927924, “Bisubstrate UDP–peptide conjugates as human O-GlcNAc transferase inhibitors” (Biochemical Journal, 2014).
Entries after “also recorded” stand apart in the source; their conditions may differ. Values belong to the molecule of their own block, whether it stands above or below them. Where a SMILES comes first, the peptide text is derived from it. Where no end group is shown, it is not given here. Side-chain parts run from the residue outwards. The star is where a group is joined. Propyl(3-UDP) = O=c1ccn([C@@H]2O[C@H](COP(=O)(O)OP(=O)(O)OCCC*)[C@@H](O)[C@H]2O)c(=O)[nH]1; X1 = O=c1ccn([C@@H]2O[C@H](COP(=O)(O)OP(=O)(O)OCCCC*)[C@@H](O)[C@H]2O)c(=O)[nH]1; C3 linker = three-carbon linker from the acceptor serine to UDP; C4 linker = four-carbon linker from the acceptor serine to UDP

Assays:
[1] = molecular target: T1, SmNodC (Sinorhizobium meliloti NodC) (Rhizobium meliloti, UniProt P04341); assay: Coupled fluorigenic in vitro assay of GlcNAc transferase SmNodC; type: biochemical; conditions: 1 mM–0.46 μM compound
T1 sequence (P04341 1-426): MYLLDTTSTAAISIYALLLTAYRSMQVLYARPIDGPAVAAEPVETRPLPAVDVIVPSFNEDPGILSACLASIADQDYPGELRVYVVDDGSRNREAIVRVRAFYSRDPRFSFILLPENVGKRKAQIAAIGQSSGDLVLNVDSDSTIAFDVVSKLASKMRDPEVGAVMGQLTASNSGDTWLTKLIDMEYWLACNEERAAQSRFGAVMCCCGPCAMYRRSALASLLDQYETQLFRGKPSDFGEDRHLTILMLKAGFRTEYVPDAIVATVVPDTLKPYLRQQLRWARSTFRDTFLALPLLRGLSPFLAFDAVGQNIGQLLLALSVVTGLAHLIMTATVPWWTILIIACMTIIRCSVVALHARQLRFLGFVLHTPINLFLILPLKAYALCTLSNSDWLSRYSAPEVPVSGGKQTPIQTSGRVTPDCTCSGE
Protocol: Figure S4 The bacterial GlcNAc transferase NodC is not inhibited by goblin1 7.27–7.20 (m, 4H), 7.16 (t, J 8.2 Hz, 4H), 6.31 (d, J 8.2 Hz, 1H), Sm NodC, a GlcNAc transferase from Sinorhizobium meliloti that utilizes UDP-GlcNAc to 5.11–4.95 (m, 4H), 4.61 (dt, J 8.2, 3.0 Hz, 1H), 4.41 (dd, J 10.5, synthesize chito-oligosaccharides, was assayed to investigate the selectivity of goblin1. A 7.2 Hz, 1H), 4.31 (dd, J 10.5, 7.5 Hz, 1H), 4.24–4.14 (m, 2H), coupled ﬂuorigenic in vitro assay was performed in the presence of 1 mM–0.46 μM of goblin1, 4.10 (dq, J 11.2, 5.9 Hz, 1H), 3.92 (dd, J 9.5, 3.3 Hz, 1H), 3.79 12, 17 and UDP. The assay (details available from D. M. F. v. A. on request) relies on (dd, J 9.5, 2.9 Hz, 1H), 3.58 (dt, J 10.4, 5.4 Hz, 1H), 3.47 (dt, the elongation of 4-methylumbellifer yl-N -acetyl-β 1,4-glucosamine by the GlcNAc transferase J 9.8, 6.0 Hz, 1H), 2.37 (s, 3H), 2.35 (s, 3H), 1.8 (m, 1H), 1.7 Sm NodC, and subsequent hydrolysis of the reaction products by Aspergillus fumigatus chitinase (m, 1H), 1.60 (m, 2H); 13 C NMR (126 MHz, [2 H]chloroform) […]
4-parameter IC50 equation in the GraphPad Prism program (http://www.graphpad.com). […]
Beamline, wavelength (A˚) ID 23-1, 0.981ture was stirred for 16 h at room temperature. The reaction Space group P 321was quenched by the addition of methanol, stirred for 30 min Cell dimensions˚) 273.7, 142.6and concentrated. The residue was partitioned between ethyl […]
Resolution (A acetate and 10 % aqueous citric acid solution and the layers R merge 0.136 (0.505)were separated. The organic layer was washed successively with I /σ I 9.2 (3.1)water and a mixture of saturated NaHCO3 solution and brine.
Completeness (%) 99.2 (99.7)The aqueous layer was additionally extracted with the same Redundancy 4.3 (4.5)portion of ethyl acetate. The combined organic layer was dried and Reﬁnement ˚) 30–3.15concentrated. The residue was puriﬁed by ﬂash chromatography […]

hOGT [2] = molecular target: hOGT; set-up: method as in PMID 23103942; conditions: cited from earlier work
hOGT [3] = molecular target: hOGT; set-up: method as in PMID 21258330; conditions: read-out: Ki for hOGT in vitro; cited from earlier work
hOGT-(312–1031) [4] = molecular target: T2, hOGT-(312–1031) (Homo sapiens, UniProt O15294); assay: In vitro glycosylation of peptide substrate KKENSPAVTPVSTA by hOGT, fluorimetric UDP detection; type: biochemical; conditions: 10 μM peptide KKENSPAVTPVSTA, 3.2 μM UDP-GlcNAc, 50 nM hOGT
T2 construct: Reactions contained 50 nM hOGT-(312–1031) in 50 mM Tris/HCl; made in house
T2 sequence (O15294 312-1031 isoform O15294-3): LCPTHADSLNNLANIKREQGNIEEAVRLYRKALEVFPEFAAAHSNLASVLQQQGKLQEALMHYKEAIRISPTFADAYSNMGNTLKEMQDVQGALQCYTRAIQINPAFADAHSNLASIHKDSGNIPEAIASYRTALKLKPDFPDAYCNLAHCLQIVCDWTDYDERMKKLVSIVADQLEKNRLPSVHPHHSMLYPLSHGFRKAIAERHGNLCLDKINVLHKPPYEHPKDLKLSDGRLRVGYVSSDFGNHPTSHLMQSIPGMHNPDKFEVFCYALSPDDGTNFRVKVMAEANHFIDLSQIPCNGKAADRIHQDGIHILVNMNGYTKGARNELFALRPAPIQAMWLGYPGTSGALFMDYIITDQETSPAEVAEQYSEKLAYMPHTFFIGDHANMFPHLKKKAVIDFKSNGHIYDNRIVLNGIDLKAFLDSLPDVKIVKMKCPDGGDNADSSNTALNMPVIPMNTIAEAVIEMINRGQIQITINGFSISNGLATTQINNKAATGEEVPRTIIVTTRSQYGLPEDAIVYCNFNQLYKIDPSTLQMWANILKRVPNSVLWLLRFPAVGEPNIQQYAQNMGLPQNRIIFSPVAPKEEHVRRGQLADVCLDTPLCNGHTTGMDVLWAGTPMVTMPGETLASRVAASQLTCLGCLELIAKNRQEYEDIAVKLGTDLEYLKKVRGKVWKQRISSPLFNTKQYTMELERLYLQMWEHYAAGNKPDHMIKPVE
Protocol: Reactions contained 50 nM hOGT-(312–1031) in 50 mM Tris/HCl (pH 7.5), 0.1 mg/ml BSA, 10 μM sodium dithionate and 10 μM peptide (KKENSPAVTPVSTA) and various amounts of inhibitors in a total volume of 100 μl. Reaction mixtures were pre-incubated for 15 min and started by addition of UDP-GlcNAc to a final concentration of 3.2 μM. After 30 min of incubation at 22°C, assays were stopped by adding 200 μl of 25 mM Hepes (pH 7.4), 10 mM NaCl, 50% (v/v) methanol and 15 μM fluorophore, a UDP-sensitive xanthene-based Zn(II) complex prepared as described in [19, 20]. Product formation was detected fluorimetrically on a Gemini EM fluorescence microplate reader (Molecular Devices) at excitation and emission wavelengths of 485 nm and 530 nm respectively. A non-linear regression curve fit was performed with Prism.

hOGT-(312–1031) [5] = molecular target: T2, hOGT-(312–1031); assay: Biolayer interferometry binding to immobilized biotinylated hOGT-(312-1031); conditions: 25°C
Protocol: Measurements were made on a ForteBio Octet RED384 instrument at 25°C. Biotinylated hOGT-(312–1031) was prepared at 25 μg/ml in TBS (25 mM Tris/HCl, pH 7.5, and 150 mM NaCl) buffer containing 1 mM DTT and immobilized on superstreptavidin biosensors. Free streptavidin sites were blocked by incubation with biocytin. A parallel set of superstreptavidin biosensors were prepared with biotinylated streptavidin to act as a control. The assay was carried out in 384-well plates with a sample volume of 100 μl. Inhibitor solutions were prepared from solid stocks and dissolved in assay buffer and a concentration series of 3-fold dilutions from a top concentration of 100 μM was created. Cycles for analysis involved obtaining a 30 s baseline followed by a 60 s association step and a 120 s dissociation step. The assay was repeated with the reference biosensors to correct for non-specific interactions and the entire assay was repeated in triplicate for both compounds. Data were processed and kinetic parameters were calculated using ForteBio software.

hOGT-(312–1031) [6] = molecular target: T2, hOGT-(312–1031); assay: In vitro glycosylation of hTAB1 by hOGT, Western blot with TAB1-gSer395 antibody and densitometry; type: biochemical; conditions: 1 μM TAB1-(7–402), 10 μM UDP-GlcNAc, Western blot densitometric quantification; read-out: IC50, O-GlcNAcylation of substrate protein TAB1
Protocol: Reaction mixtures containing 1 μM TAB1-(7–402) protein [TAB1 is TGF (transforming growth factor)-β-activated kinase-binding protein 1] (purified as described previously), 0.125 μM hOGT-(312–1031) and 10 μM UDP-GlcNAc in a buffer of 50 mM Tris/HCl (pH 7.5) and 1 mM DTT were incubated at 37°C for 90 min, separated by SDS/PAGE (10% gels) and transferred on to nitrocellulose membranes. Membranes were probed with a TAB1-gSer^395 (O-GlcNAcylated Ser^395) O-GlcNAc site-specific antibody, followed by an IR800-labelled secondary antibody and analysed using a LI-COR Odyssey scanner and associated quantification software. Data were fitted to a four-parameter equation for dose-dependent inhibition using GraphPad Prism 5.0.

[7] = molecular target: T3, goblin1 (UDP-peptide conjugate 14a); assay: biolayer interferometry
T3 chain: VTPVS([C3 linker-UDP])TA-NH2

[8] = molecular target: T4, goblin2 (UDP-peptide conjugate 14b); assay: biolayer interferometry
T4 chain: VTPVS([C4 linker-UDP])TA-NH2

IC50 [1]: 90 µM
Molecule: O=c1ccn([C@@H]2O[C@H](COP(=O)(O)OP(=O)(O)O)[C@@H](O)[C@H]2O)c(=O)[nH]1 [UDP, reference compound]
Kd (hOGT [2]): 0.5 µM

Molecule: CC(=O)N[C@@H]1[C@@H](O)[C@H](O)[C@@H](CO)S[C@@H]1OP(=O)(O)OP(=O)(O)OC[C@H]1O[C@@H](n2ccc(=O)[nH]c2=O)[C@H](O)[C@@H]1O [UDP-5S-GlcNAc]
Ki (hOGT [3]): 8 µM

Molecule: CC(=O)N[C@H]1[C@@H](OP(=O)(O)OP(=O)(O)OC[C@H]2O[C@@H](n3ccc(=O)[nH]c3=O)[C@H](O)[C@@H]2O)O[C@H](CO)[C@@H](O)[C@@H]1O [UDP-GlcNAc]
fold higher Kd than for UDP (hOGT [2]; biophysical determination): 30 fold

Molecule: COCCCOP(=O)(O)OP(=O)(O)OC[C@H]1O[C@@H](n2ccc(=O)[nH]c2=O)[C@H](O)[C@@H]1O [compound 17]
IC50 (hOGT-(312–1031) [4]): 300 µM | SmNodC inhibition [1]: not inhibited

Molecule: CC(=O)N[C@H](C(=O)N[C@H](C(=O)N1CCC[C@H]1C(=O)N[C@H](C(=O)N[C@@H](COCCCOP(=O)(O)OP(=O)(O)OC[C@H]1O[C@@H](n2ccc(=O)[nH]c2=O)[C@H](O)[C@@H]1O)C(=O)N[C@H](C(=O)N[C@@H](C)C(N)=O)[C@@H](C)O)C(C)C)[C@@H](C)O)C(C)C [goblin1] (Ac-VTPVS(Propyl(3-UDP))TA-NH2)
Kd (hOGT-(312–1031) [5]): 7.9 µM | IC50 (hOGT-(312–1031) [4]): 18 µM | IC50 (hOGT-(312–1031) [6]): 8 µM | SmNodC inhibition [1]: not an inhibitor; also recorded: not inhibited

Molecule: CC(=O)N[C@H](C(=O)N[C@H](C(=O)N1CCC[C@H]1C(=O)N[C@H](C(=O)N[C@@H](COCCCCOP(=O)(O)OP(=O)(O)OC[C@H]1O[C@@H](n2ccc(=O)[nH]c2=O)[C@H](O)[C@@H]1O)C(=O)N[C@H](C(=O)N[C@@H](C)C(N)=O)[C@@H](C)O)C(C)C)[C@@H](C)O)C(C)C [goblin2] (Ac-VTPVS(X1)TA-NH2)
Kd (hOGT-(312–1031) [5]): 4.9 µM | IC50 (hOGT-(312–1031) [4]): 40 µM

Kd [7]: 7.9 µM | Kd [8]: 4.9 µM
B1: O-GlcNAc transferase (hOGT) 312-1031 (protein)
chain: AEDCYNTALRLCPTHADSLNNLANIKREQGNIEEAVRLYRKALEVFPEFAAAHSNLASVLQQQGKLQEALMHYKEAIRISPTFADAYSNMGNTLKEMQDVQGALQCYTRAIQINPAFADAHSNLASIHKDSGNIPEAIASYRTALKLKPDFPDAYCNLAHCLQIVCDWTDYDERMKKLVSIVADQLEKNRLPSVHPHHSMLYPLSHGFRKAIAERHGNLCLDKINVLHKPPYEHPKDLKLSDGRLRVGYVSSDFGNHPTSHLMQSIPGMHNPDKFEVFCYALSPDDGTNFRVKVMAEANHFIDLSQIPCNGKAADRIHQDGIHILVNMNGYTKGARNELFALRPAPIQAMWLGYPGTSGALFMDYIITDQETSPAEVAEQYSEKLAYMPHTFFIGDHANMFPHLKKKAVIDFKSNGHIYDNRIVLNGIDLKAFLDSLPDVKIVKMKCPDGGDNADSSNTALNMPVIPMNTIAEAVIEMINRGQIQITINGFSISNGLATTQINNKAATGEEVPRTIIVTTRSQYGLPEDAIVYCNFNQLYKIDPSTLQMWANILKRVPNSVLWLLRFPAVGEPNIQQYAQNMGLPQNRIIFSPVAPKEEHVRRGQLADVCLDTPLCNGHTTGMDVLWAGTPMVTMPGETLASRVAASQLTCLGCLELIAKNRQEYEDIAVKLGTDLEYLKKVRGKVWKQRISSPLFNTKQYTMELERLYLQMWEHYAAGN
